Data on eleven compounds can be found in ChEMBL document CHEMBL1140773, “Discovery of amide and heteroaryl isosteres as carbamate replacements in a series of orally active gamma-secretase inhibitors” (Bioorg Med Chem Lett, 2008).

Usually AUC(0-t) stands for exposure summed from dosing to a finite time, without extrapolation to infinity. A low value points to less exposure.

This series can be described thus: in vivo. Particulars: rat, plasma, po, 10 mg/kg.

Each structure is given as a SMILES string.

The compound `O=C(CC1([C@H]2CCC[C@@H](C3CC3)N2S(=O)(=O)c2ccc(Cl)cc2)CC1)N1CC2CCC(C1)N2CCO` (mixture of isomers) displayed an exposure AUC(0-t) at 6 h of 5810 ng·h/mL.

Turning to `CC[C@@H]1CCC[C@H](C2(CC(=O)N3CC4CCC(C3)N4CCO)CC2)N1S(=O)(=O)c1ccc(Cl)cc1` (mixture of isomers), the exposure AUC(0-t) at 6 h came out at 3220 ng·h/mL.

Consider `CC[C@@H]1CCC[C@H](C2(CC(=O)N3CC4CCC(C3)N4C)CC2)N1S(=O)(=O)c1ccc(Cl)cc1` (mixture of isomers), for which the AUC(0-t) at 6 h stood at 2650 ng·h/mL.

With `CC(C)(CO)N1CCN(C(=O)CC2([C@H]3CCC[C@@H](C4CC4)N3S(=O)(=O)c3ccc(Cl)cc3)CC2)CC1` (racemic), the AUC(0-t) at 6 h turned out to be 1350 ng·h/mL.

The compound `CC[C@@H]1CCC[C@H](C2(Cc3nc(CN(C)C(C)(C)CO)no3)CC2)N1S(=O)(=O)c1ccc(Cl)cc1` (racemic) yielded an AUC(0-t) at 6 h of 973 ng·h/mL.

For `CC[C@@H]1CCC[C@H](C2(Cc3nc(CN4CCCC4)no3)CC2)N1S(=O)(=O)c1ccc(Cl)cc1` (racemic), the exposure AUC(0-t) at 6 h amounted to 26 ng·h/mL.

For the compound `CC[C@@H]1CCC[C@H](C2(CC(=O)N3CCN4CCCC[C@H]4C3)CC2)N1S(=O)(=O)c1ccc(Cl)cc1` (racemic), the exposure AUC(0-t) at 6 h is 419 ng·h/mL.

As for `CN(Cc1noc(CC2([C@H]3CCC[C@@H](C4CC4)N3S(=O)(=O)c3ccc(Cl)cc3)CC2)n1)C(C)(C)CO` (racemic), the AUC(0-t) at 6 h was 143 ng·h/mL.

Turning to `CC[C@@H]1CCC[C@H](C2(CC(=O)N3CCC(N4CCCCC4)CC3)CC2)N1S(=O)(=O)c1ccc(Cl)cc1` (racemic), the AUC(0-t) at 6 h turned out to be 93 ng·h/mL.

In the case of `CC[C@@H]1CCC[C@H](C2(CC(=O)N3CCN(C(C)(C)CO)CC3)CC2)N1S(=O)(=O)c1ccc(Cl)cc1` (racemic), the area under the curve AUC(0-t) at 6 h stood at 1620 ng·h/mL.

Compound `O=C(CC1([C@H]2CCC[C@@H](C3CC3)N2S(=O)(=O)c2ccc(Cl)cc2)CC1)N1CCN2CCCC[C@H]2C1` (racemic) showed an AUC(0-t) at 6 h of 673 ng·h/mL.
